Data set [1] is described as follows: The drug is tested on Z-027 corresponding to metagenome with ENA study accession number: PRJEB37062 and ENA sample accession number: ERS12561826 for biotransformation under anaerobic condition. The drug concentrations were measured over 9 timepoints collected between 0 and 24 hours of incubation by liquid-chromatography-coupled mass spectrometry (LC–MS). Conditions: 2 µM.

Data set [2] can be described thus: The drug is tested on Z-013 corresponding to rabbit gut metagenome with ENA study accession number: PRJEB37062 and ENA sample accession number: ERS12561813 for biotransformation under anaerobic condition. The drug concentrations were measured over 9 timepoints collected between 0 and 24 hours of incubation by liquid-chromatography-coupled mass spectrometry (LC–MS). Conditions: 2 µM.

A short description of data set [3]: The drug is tested on Z-011 corresponding to mouse gut metagenome with ENA study accession number: PRJEB37062 and ENA sample accession number: ERS12561811 for biotransformation under anaerobic condition. The drug concentrations were measured over 9 timepoints collected between 0 and 24 hours of incubation by liquid-chromatography-coupled mass spectrometry (LC–MS). The note with it: 2 µM.

Data set [4] in a line: The drug is tested on Z-010 corresponding to metagenome with ENA study accession number: PRJEB37062 and ENA sample accession number: ERS12561810 for biotransformation under anaerobic condition. The drug concentrations were measured over 9 timepoints collected between 0 and 24 hours of incubation by liquid-chromatography-coupled mass spectrometry (LC–MS). The note with it: 2 µM.

Data set [5] is described as follows: The drug is tested on Z-009 corresponding to pig gut metagenome with ENA study accession number: PRJEB37062 and ENA sample accession number: ERS12561809 for biotransformation under anaerobic condition. The drug concentrations were measured over 9 timepoints collected between 0 and 24 hours of incubation by liquid-chromatography-coupled mass spectrometry (LC–MS). The note with it: 2 µM.

Data set [6] can be described thus: The drug is tested on Z-006 corresponding to mouse gut metagenome with ENA study accession number: PRJEB37062 and ENA sample accession number: ERS12561806 for biotransformation under anaerobic condition. The drug concentrations were measured over 9 timepoints collected between 0 and 24 hours of incubation by liquid-chromatography-coupled mass spectrometry (LC–MS). Conditions: 2 µM.

Data set [7] can be described thus: The drug is tested on Z-005 corresponding to metagenome with ENA study accession number: PRJEB37062 and ENA sample accession number: ERS12561805 for biotransformation under anaerobic condition. The drug concentrations were measured over 9 timepoints collected between 0 and 24 hours of incubation by liquid-chromatography-coupled mass spectrometry (LC–MS). The note with it: 2 µM.

The nature of data set [8]: The drug is tested on WLS-370 corresponding to human gut metagenome with ENA study accession number: PRJEB37062 and ENA sample accession number: ERS12561793 for biotransformation under anaerobic condition. The drug concentrations were measured over 9 timepoints collected between 0 and 24 hours of incubation by liquid-chromatography-coupled mass spectrometry (LC–MS). Conditions: 2 µM.

Data set [9] in a line: The drug is tested on WLS-220 corresponding to human gut metagenome with ENA study accession number: PRJEB37062 and ENA sample accession number: ERS12561769 for biotransformation under anaerobic condition. The drug concentrations were measured over 9 timepoints collected between 0 and 24 hours of incubation by liquid-chromatography-coupled mass spectrometry (LC–MS). The note with it: 2 µM.

Data set [10] in a line: The drug is tested on WLS-073 corresponding to human gut metagenome with ENA study accession number: PRJEB37062 and ENA sample accession number: ERS12561749 for biotransformation under anaerobic condition. The drug concentrations were measured over 9 timepoints collected between 0 and 24 hours of incubation by liquid-chromatography-coupled mass spectrometry (LC–MS). The note with it: 2 µM.

The conditions of data set [11]: human gut metagenome, 24 h, 2 µM.
For data set [12] the following is noted: human gut metagenome, 24 h, 2 µM. The source holds these as a separate data set.
For data set [13] the following is noted: human gut metagenome, 24 h, 2 µM. The source holds these as a separate data set.
The conditions of data set [14]: human gut metagenome, 24 h, 2 µM. This is another data set of the same source.
The conditions of data set [15]: human gut metagenome, 24 h, 2 µM. The source holds these as a separate data set.
For data set [16] the following is noted: human gut metagenome, 24 h, 2 µM. This is another data set of the same source.
The conditions of data set [17]: human gut metagenome, 24 h, 2 µM. This is another data set of the same source.
For data set [18] the following is noted: human gut metagenome, 24 h, 2 µM. This is another data set of the same source.
For data set [19] the following is noted: human gut metagenome, 24 h, 2 µM. The source holds these as a separate data set.
The conditions of data set [20]: human gut metagenome, 24 h, 2 µM. The source holds these as a separate data set.
Note: call rule not given here.

As to `CN1C(=O)CC(C)(c2ccccc2)C1=O` (stereo not given) [METHSUXIMIDE], the “Bacterial Biotransformation” value in [1], in data set [2], in data set [3], in data set [4], in [5] and in data set [6] was “Compound NOT metabolized” each time. Moreover, the “Bacterial Biotransformation” value in [7], in [8], in [9], in [10], in data set [11] and in [12] was “Compound NOT metabolized” in each case. Besides, the “Bacterial Biotransformation” value in data set [13] is recorded as “Compound NOT metabolized”; in data set [14] it was “Compound NOT metabolized”; in data set [15], “Compound NOT metabolized”; in data set [16] it was “Compound metabolized”; in data set [17] it was “Compound NOT metabolized”; in [18] it was “Compound metabolized”. For the same compound, the “Bacterial Biotransformation” value in data set [19] and in [20] was “Compound NOT metabolized” throughout.
For `CNC(=C[N+](=O)[O-])NCCSCc1csc(CN(C)C)n1` [NIZATIDINE], the “Bacterial Biotransformation” value in [1] was “Compound NOT metabolized”; in data set [2], “Compound NOT metabolized”; in data set [3], “Compound metabolized”; in data set [4], “Compound NOT metabolized”; in [5] it was “Compound NOT metabolized”; in [6], “Compound NOT metabolized”. The “Bacterial Biotransformation” value in [7] is “Compound NOT metabolized”; in data set [8], “Compound NOT metabolized”; in [9] it was “Compound NOT metabolized”; in [10], “Compound metabolized”; in data set [11], “Compound NOT metabolized”; in data set [12], “Compound NOT metabolized”. In addition, the “Bacterial Biotransformation” value in data set [13] was “Compound metabolized”; in data set [14] it was “Compound metabolized”; in [15] it was “Compound NOT metabolized”; in data set [16], “Compound metabolized”; in [17], “Compound metabolized”; in data set [18], “Compound metabolized”. In addition, the entries for the “Bacterial Biotransformation” value in data set [19] and in data set [20] were “Compound NOT metabolized” and “Compound metabolized”, respectively.
Take `COc1ccc2[nH]c([S+]([O-])Cc3ncc(C)c(OC)c3C)nc2c1` (stereo not given) [OMEPRAZOLE]: the “Bacterial Biotransformation” value in data set [1] is given as “Compound metabolized”; in data set [2], “Compound NOT metabolized”; in data set [3], “Compound NOT metabolized”; in data set [4], “Compound metabolized”; in data set [5], “Compound NOT metabolized”; in [6], “Compound NOT metabolized”. The “Bacterial Biotransformation” value in data set [7] is “Compound NOT metabolized”; in [8], “Compound metabolized”; in data set [9] it was “Compound metabolized”; in data set [10] it was “Compound metabolized”; in [11], “Compound metabolized”; in data set [12], “Compound metabolized”. Moreover, the “Bacterial Biotransformation” value in [13], in data set [14], in [15], in [16], in data set [17] and in data set [18] was “Compound metabolized” in each case. Moreover, the “Bacterial Biotransformation” value in data set [19] and in data set [20] was “Compound metabolized” throughout.
As to `O=C(O)CCc1nc(-c2ccccc2)c(-c2ccccc2)o1` [OXAPROZIN], the “Bacterial Biotransformation” value is “Compound metabolized” in data set [1]; “Compound NOT metabolized” in data set [2]; “Compound NOT metabolized” in data set [3]; “Compound metabolized” in data set [4]; “Compound NOT metabolized” in [5]; “Compound NOT metabolized” in data set [6]. Besides, the “Bacterial Biotransformation” value in [7], in [8], in data set [9], in [10], in [11] and in [12] was “Compound metabolized” each time. Besides, the “Bacterial Biotransformation” value in [13], in data set [14], in data set [15], in data set [16], in [17] and in [18] was “Compound metabolized” throughout. For the same compound, the “Bacterial Biotransformation” value in data set [19] and in data set [20] was “Compound metabolized” throughout.
On to `CC(C)(C)NC[C@H](O)COc1ccccc1C1CCCC1.CC(C)(C)NC[C@H](O)COc1ccccc1C1CCCC1.O=S(=O)(O)O` [PENBUTOLOL SULFATE], for which the “Bacterial Biotransformation” value in data set [1] is “Compound NOT metabolized”; in [2], “Compound NOT metabolized”; in [3], “Compound NOT metabolized”; in [4] it was “Compound metabolized”; in data set [5] it was “Compound metabolized”; in data set [6] it was “Compound NOT metabolized”. Further, the “Bacterial Biotransformation” value in data set [7], in data set [8], in [9], in data set [10], in data set [11] and in [12] was “Compound metabolized” throughout. For the same compound, the “Bacterial Biotransformation” value in data set [13], in data set [14], in data set [15], in data set [16], in [17] and in data set [18] was “Compound metabolized” each time. Further, the “Bacterial Biotransformation” value in [19] and in [20] was “Compound metabolized” each time.
Turning to `CCOc1ccc(NC(C)=O)cc1` [PHENACETIN], the “Bacterial Biotransformation” value in data set [1], in data set [2], in [3], in data set [4], in data set [5] and in [6] was “Compound NOT metabolized” in each case. In addition, the “Bacterial Biotransformation” value in data set [7], in [8], in [9], in data set [10], in data set [11] and in [12] was “Compound NOT metabolized” throughout. Further, the “Bacterial Biotransformation” value in data set [13], in data set [14], in data set [15], in data set [16], in data set [17] and in data set [18] was “Compound NOT metabolized” in each case. Also, the “Bacterial Biotransformation” value in [19] and in [20] was “Compound NOT metabolized” each time.

(Values after ChEMBL document CHEMBL5724914, “Linking interpersonal differences in gut microbiota composition and drug biotransformation activity” (2024).)
